From the supplement of paper PMC8612539

Tested on: Pasteurella multocida
Test: minimum inhibitory concentration (MIC)
Protocol: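 Broth microdilution MIC (Sensititre BOPO7F bovine plate, CLSI methods) of 19 antimicrobials against field isolates of P. multocida, M. haemolytica, H. somni (deep nasopharyngeal swabs) and E. coli, Enterococcus spp. (rectal swabs) from weaned dairy heifers. Incubation 16-24 h at 35 C. MIC is the lowest concentration preventing visible growth. Values with <= or > lie at the tested range limits. Trimethoprim-sulfamethoxazole is given as the trimethoprim component of a 1:19 mixture.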

COc1cc(Cc2cnc(N)nc2N)cc(OC)c1OC.Cc1cc(NS(=O)(=O)c2ccc(N)cc2)no1 [trimethoprim-sulfamethoxazole]
Conditions | minimum inhibitory concentration [µg/mL]
isolate (source animal id): 10 | ≤ 2
isolate (source animal id): 11 | ≤ 2
isolate (source animal id): 12 | ≤ 2
isolate (source animal id): 19 | ≤ 2
isolate (source animal id): 23 | ≤ 2
isolate (source animal id): 26 | ≤ 2
isolate (source animal id): 30 | ≤ 2
isolate (source animal id): 34 | ≤ 2
isolate (source animal id): 36 | ≤ 2
isolate (source animal id): 37 | ≤ 2
isolate (source animal id): 46 | ≤ 2
isolate (source animal id): 48 | ≤ 2
isolate (source animal id): 49 | ≤ 2
isolate (source animal id): 54 | ≤ 2
isolate (source animal id): 55 | ≤ 2
isolate (source animal id): 58 | ≤ 2
isolate (source animal id): 60 | ≤ 2
isolate (source animal id): 61 | ≤ 2
isolate (source animal id): 63 | ≤ 2
isolate (source animal id): 64 | ≤ 2
isolate (source animal id): 65 | ≤ 2
isolate (source animal id): 66 | ≤ 2
isolate (source animal id): 67 | ≤ 2
isolate (source animal id): 69 | ≤ 2
isolate (source animal id): 73 | ≤ 2
isolate (source animal id): 75 | ≤ 2
isolate (source animal id): 76 | ≤ 2
isolate (source animal id): 77 | ≤ 2
isolate (source animal id): 78 | ≤ 2
isolate (source animal id): 80 | ≤ 2
isolate (source animal id): 82 | ≤ 2
isolate (source animal id): 83 | ≤ 2
isolate (source animal id): 88 | > 2
isolate (source animal id): 92 | ≤ 2
isolate (source animal id): 94 | ≤ 2
isolate (source animal id): 98 | ≤ 2
isolate (source animal id): 104 | ≤ 2
isolate (source animal id): 115 | > 2
isolate (source animal id): 117 | ≤ 2
isolate (source animal id): 118 | ≤ 2
isolate (source animal id): 121 | > 2
isolate (source animal id): 124 | ≤ 2
isolate (source animal id): 125 | ≤ 2
isolate (source animal id): 128 | > 2
isolate (source animal id): 131 | ≤ 2
isolate (source animal id): 135 | > 2
isolate (source animal id): 136 | > 2
isolate (source animal id): 140 | ≤ 2
isolate (source animal id): 144 | ≤ 2
isolate (source animal id): 146 | ≤ 2
isolate (source animal id): 150 | > 2
isolate (source animal id): 151 | > 2
isolate (source animal id): 153 | ≤ 2
isolate (source animal id): 155 | ≤ 2
isolate (source animal id): 157 | ≤ 2
isolate (source animal id): 160 | > 2
isolate (source animal id): 164 | > 2
isolate (source animal id): 165 | > 2
isolate (source animal id): 167 | ≤ 2
isolate (source animal id): 168 | ≤ 2
isolate (source animal id): 169 | ≤ 2
isolate (source animal id): 170 | ≤ 2
isolate (source animal id): 171 | ≤ 2
isolate (source animal id): 172 | ≤ 2
isolate (source animal id): 173 | ≤ 2
isolate (source animal id): 174 | ≤ 2
isolate (source animal id): 175 | ≤ 2
isolate (source animal id): 176 | ≤ 2
isolate (source animal id): 177 | ≤ 2
isolate (source animal id): 178 | ≤ 2
isolate (source animal id): 179 | ≤ 2
isolate (source animal id): 182 | ≤ 2
isolate (source animal id): 192 | ≤ 2
isolate (source animal id): 193 | ≤ 2
isolate (source animal id): 195 | ≤ 2
isolate (source animal id): 196 | ≤ 2
isolate (source animal id): 197 | ≤ 2
isolate (source animal id): 198 | ≤ 2
isolate (source animal id): 199 | ≤ 2
isolate (source animal id): 200 | ≤ 2
isolate (source animal id): 201 | ≤ 2
isolate (source animal id): 203 | ≤ 2
isolate (source animal id): 204 | ≤ 2
isolate (source animal id): 205 | ≤ 2
isolate (source animal id): 206 | ≤ 2
isolate (source animal id): 207 | ≤ 2
isolate (source animal id): 208 | ≤ 2
isolate (source animal id): 209 | ≤ 2
isolate (source animal id): 210 | ≤ 2
isolate (source animal id): 213 | ≤ 2
isolate (source animal id): 216 | ≤ 2
isolate (source animal id): 223 | ≤ 2
isolate (source animal id): 227 | ≤ 2
isolate (source animal id): 229 | ≤ 2
isolate (source animal id): 233 | ≤ 2
isolate (source animal id): 234 | ≤ 2
isolate (source animal id): 237 | ≤ 2
isolate (source animal id): 241 | ≤ 2
isolate (source animal id): 245 | ≤ 2
isolate (source animal id): 247 | ≤ 2
isolate (source animal id): 250 | ≤ 2
isolate (source animal id): 254 | ≤ 2
isolate (source animal id): 255 | ≤ 2
isolate (source animal id): 258 | ≤ 2
isolate (source animal id): 261 | ≤ 2
isolate (source animal id): 262 | ≤ 2
isolate (source animal id): 269 | ≤ 2
isolate (source animal id): 270 | ≤ 2
isolate (source animal id): 274 | ≤ 2
isolate (source animal id): 275 | ≤ 2
isolate (source animal id): 276 | ≤ 2
isolate (source animal id): 277 | ≤ 2
isolate (source animal id): 278 | ≤ 2
isolate (source animal id): 279 | ≤ 2
isolate (source animal id): 280 | > 2
isolate (source animal id): 284 | ≤ 2
isolate (source animal id): 285 | ≤ 2
isolate (source animal id): 287 | ≤ 2
isolate (source animal id): 290 | ≤ 2
isolate (source animal id): 294 | ≤ 2
isolate (source animal id): 295 | ≤ 2
isolate (source animal id): 296 | ≤ 2
isolate (source animal id): 307 | ≤ 2
isolate (source animal id): 310 | ≤ 2
isolate (source animal id): 311 | ≤ 2
isolate (source animal id): 312 | ≤ 2
isolate (source animal id): 313 | ≤ 2
isolate (source animal id): 315 | ≤ 2
isolate (source animal id): 316 | ≤ 2
isolate (source animal id): 318 | ≤ 2
isolate (source animal id): 319 | ≤ 2
isolate (source animal id): 320 | ≤ 2
isolate (source animal id): 321 | ≤ 2
isolate (source animal id): 322 | ≤ 2
isolate (source animal id): 324 | ≤ 2
isolate (source animal id): 325 | ≤ 2
isolate (source animal id): 328 | ≤ 2
isolate (source animal id): 330 | ≤ 2
isolate (source animal id): 331 | ≤ 2
isolate (source animal id): 333 | ≤ 2
isolate (source animal id): 336 | ≤ 2
isolate (source animal id): 337 | ≤ 2
isolate (source animal id): 339 | ≤ 2
isolate (source animal id): 340 | ≤ 2
isolate (source animal id): 341 | ≤ 2
